Measured values taken from US11407763B2, “Tryptophan hydroxylase inhibitor and pharmaceutical composition including same” (GWANGJU INSTITUTE OF SCIENCE AND TECHNOLOGY, priority 2017, dated 2022).
Structures can show the parent of a compound that is named as a salt.

Biological target: TPH1 (tryptophan hydroxylase 1) (Homo sapiens (Human), UniProt P17752)
Test: TPH1 inhibitor screening assay kit (BPS Bioscience), fluorescence
Assay type: biochemical
Method: In order to confirm the inhibitory effect of the compound represented by formula 1 according to the present invention on the tryptophan hydroxylase activity, it was measured using a TPH1 (tryptophan hydroxylase 1) inhibitor screening assay kit (BPS Bioscience, Catalog #72053). The TPH1 inhibitor screening assay kit was used according to the manufacturer's manual.
Particularly, the synthesized compound was dissolved in DMSO, which was added to a 96-well microplate (10 ? /well), to which TPH1 enzyme was added (40 ? /well). Then, TPH1 reaction solution was added to the microplate (50 ? /well) and the microplate was shaded with aluminum foil. The microplate was transferred to 4° C. environment, shaken carefully and incubated for 4 hours. After adding a quench solution to the microplate (10 ? /well), the TPH1 activity was measured by reading the degree of fluorescence color development with a Flexstation3 microplate reader. At this time, the excitation spectrum was 300 nm and the emission spectrum was 360 nm.

[1] = TPH1 enzyme, 4 hours at 4° C., ex 300 nm / em 360 nm
[2] = TPH1 enzyme, 4 hours at 4° C., ex 300 nm / em 360 nm, hydrochloride

Chain of TPH1 (tryptophan hydroxylase 1) (P17752 whole entry): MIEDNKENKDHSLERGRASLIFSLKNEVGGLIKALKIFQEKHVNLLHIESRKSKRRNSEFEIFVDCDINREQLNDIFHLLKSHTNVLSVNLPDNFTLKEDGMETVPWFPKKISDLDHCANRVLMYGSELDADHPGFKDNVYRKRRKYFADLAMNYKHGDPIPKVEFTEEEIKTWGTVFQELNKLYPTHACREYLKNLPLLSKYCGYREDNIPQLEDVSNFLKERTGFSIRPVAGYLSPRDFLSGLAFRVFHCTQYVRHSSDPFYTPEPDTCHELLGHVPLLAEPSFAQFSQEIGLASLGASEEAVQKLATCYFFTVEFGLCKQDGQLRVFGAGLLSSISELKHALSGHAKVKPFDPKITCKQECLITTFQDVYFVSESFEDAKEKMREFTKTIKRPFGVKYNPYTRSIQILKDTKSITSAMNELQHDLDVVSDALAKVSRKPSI

COc1cccc(-c2ccc(Cn3ccc4c(-c5ccc(C[C@H](N)C(=O)O)cc5)ncnc43)cc2)c1 [Example 23, (S)-2-amino-3-(4-(7-((3′-methoxy-[1,1′-biphenyl]-4-yl)methyl)-7H-pyrrolo[2,3-d]pyrimidine-4-yl)phenyl)propionic acid hydrochloride]
IC50 [1]: 578 nM

Cc1ccn(-c2cc(Cl)ccc2[C@@H](Oc2cc(C3=CCC(C[C@H](N)C(=O)O)CC3)nc(N)n2)C(F)(F)F)n1 (stereo partly drawn) [Example 45, (2S)-2-amino-3-(4-(2-amino-6-((R)-1-(4-chloro-2-(3-methyl-1H-pyrazole-1-yl)phenyl)-2,2,2-trifluoroethoxy)pyrimidine-4-yl)cyclohex-3-ene-1-yl)propionic acid]
IC50 (TPH1): 98 nM
IC50 [1]: 98 nM

N[C@@H](Cc1ccc(-c2csc3c(OC(c4ccc(Cl)cc4-c4ccccc4)C(F)(F)F)ncnc23)cc1)C(=O)O (stereo partly drawn) [Example 26, (2S)-2-amino-3-(4-(4-(1-(5-chloro-[1,1′-biphenyl]-2-yl)-2,2,2-trifluoroethoxy)thieno[3,2-d]pyrimidine-7-yl)phenyl)propionic acid hydrochloride]
IC50 [1]: 679 nM

Cc1ccn(-c2cc(Cl)ccc2[C@@H](Oc2ncnc3c(-c4ccc(C[C@H](N)C(=O)O)cc4)csc23)C(F)(F)F)n1 [Example 8, (S)-2-amino-3-(4-(4-((R)-1-(4-chloro-2-(3-methyl-1H-pyrazole-1-yl)phenyl)-2,2,2-trifluoroethoxy)thieno[3,2-d]pyrimidine-7-yl)phenyl)propionic acid hydrochloride]
IC50 (TPH1): 36 nM
IC50 [1]: 36 nM

COc1cccc(-c2ccc([C@@H](Oc3cc(C4=CCC5(CC4)CNC(C(=O)O)C5)nc(N)n3)C(F)(F)F)cc2)c1 (stereo partly drawn) [Example 87, 8-(2-amino-6-((R)-2,2,2-trifluoro-1-(3′-methoxy-[1,1′-biphenyl]-4-yl)ethoxy)pyrimidine-4-yl)-2-azaspiro[4.5]dec-7-ene-3-carboxylic acid hydrochloride]
IC50 [2]: 741 nM

N[C@@H](Cc1ccc(-c2csc3c(O[C@H](c4ccc(Cl)cc4C4=CCCOC4)C(F)(F)F)ncnc23)cc1)C(=O)O [Example 69, (S)-2-amino-3-(4-(4-((R)-1-(4-chloro-2-(5,6-dihydro-2H-pyran-3-yl)phenyl)-2,2,2-trifluoroethoxy)thieno[3,2-d]pyrimidine-7-yl)phenyl)propionic acid hydrochloride]
IC50 [2]: 263 nM

Cc1ccn(-c2cc(Cl)ccc2[C@@H](Oc2ncnc3c(C4=CCC5(CC4)CNC(C(=O)O)C5)csc23)C(F)(F)F)n1 (stereo partly drawn) [Example 84, 8-(4-((R)-1-(4-chloro-2-(3-methyl-1H-pyrazole-1-yl)phenyl)-2,2,2-trifluoroethoxy)thieno[3,2-d]pyrimidine-7-yl)-2-azaspiro[4.5]dec-7-ene-3-carboxylic acid hydrochloride]
IC50 [1]: 307 nM

N[C@@H](Cc1ccc(-c2csc3c(OC(c4ccc(Cl)cc4-c4ccc(F)cc4)C(F)(F)F)ncnc23)cc1)C(=O)O (stereo partly drawn) [Example 46, (2S)-2-amino-3-(4-(4-(1-(5-chloro-4′-fluoro-[1,1′-biphenyl]-2-yl)-2,2,2-trifluoroethoxy)thieno[3,2-d]pyrimidine-7-yl)phenyl)propionic acid hydrochloride]
IC50 [1]: 8720 nM

Nc1nc(O[C@H](c2ccc(Cl)cc2C2=CCOCC2)C(F)(F)F)cc(C2=CCC3(CC2)CNC(C(=O)O)C3)n1 (stereo partly drawn) [Example 83, 8-(2-amino-6-((R)-1-(4-chloro-2-(3,6-dihydro-2H-pyran-4-yl)phenyl)-2,2,2-trifluoroethoxy)pyrimidine-4-yl)-2-azaspiro[4.5]dec-7-ene-3-carboxylic acid hydrochloride]
IC50 [1]: 1150 nM

Nc1nc(O[C@H](c2ccc(Cl)cc2C2=CCCOC2)C(F)(F)F)cc(C2=CCC(C[C@H](N)C(=O)O)CC2)n1 (stereo partly drawn) [Example 67, (2S)-2-amino-3-(4-(2-amino-6-((R)-1-(4-chloro-2-(5,6-dihydro-2H-pyran-3-yl)phenyl)-2,2,2-trifluoroethoxy)pyrimidine-4-yl)cyclohex-3-ene-1-yl)propionic acid]
IC50 (TPH1): 91 nM

Nc1nc(OC(c2ccc(Cl)cc2-c2ccccc2)C(F)(F)F)cc(C2=CCC(C[C@H](N)C(=O)O)CC2)n1 (stereo partly drawn) [Example 48, (2S)-2-amino-3-(4-(2-amino-6-(1-(5-chloro-[1,1′-biphenyl]-2-yl)-2,2,2-trifluoroethoxy)pyrimidine-4-yl)cyclohex-3-ene-1-yl)propionic acid hydrochloride]
IC50 [1]: 433 nM

COc1cccc(-c2ccc([C@@H](Oc3cc(C4=CCC(C[C@H](N)C(=O)O)CC4)nc(N)n3)C(F)(F)F)cc2)c1 (stereo partly drawn) [Example 34, (2S)-2-amino-3-(4-(2-amino-6-((R)-2,2,2-trifluoro-1-(3′-methoxy-[1,1′-biphenyl]-4-yl)ethoxy)pyrimidine-4-yl)cyclohex-3-ene-1-yl)propionic acid hydrochloride]
IC50 [2]: 281 nM

CCOC(=O)[C@@H](N)Cc1ccc(-c2csc3c(O[C@H](c4ccc(Cl)cc4-n4ccc(C)n4)C(F)(F)F)ncnc23)cc1 [Example 22, ethyl (S)-2-amino-3-(4-(4-((R)-1-(4-chloro-2-(3-methyl-1H-pyrazole-1-yl)phenyl)-2,2,2-trifluoroethoxy)thieno[3,2-d]pyrimidine-7-yl)phenyl)propionate hydrochloride]
IC50 [1]: 993 nM

Cc1ccn(-c2cc(Cl)ccc2[C@@H](Oc2ncnc3c(C4=CCC(C[C@H](N)C(=O)O)CC4)csc23)C(F)(F)F)n1 (stereo partly drawn) [Example 30, (2S)-2-amino-3-(4-(4-((R)-1-(4-chloro-2-(3-methyl-1H-pyrazole-1-yl)phenyl)-2,2,2-trifluoroethoxy)thieno[3,2-d]pyrimidine-7-yl)cyclohex-3-ene-1-yl)propionic acid hydrochloride]
IC50 [1]: 1510 nM

COc1cccc(-c2ccc([C@@H](Oc3cc(C4=CCC(C[C@H](N)C(=O)O)CC4)nc(N)n3)C(F)(F)F)cc2)c1 (stereo partly drawn) [Example 58, (2S)-2-amino-3-(4-(2-amino-6-((R)-2,2,2-trifluoro-1-(3′-methoxy-[1,1′-biphenyl]-4-yl)ethoxy)pyrimidine-4-yl)cyclohex-3-ene-1-yl)propionic acid]
IC50 [1]: 204 nM

Cc1ccn(-c2cc(Cl)ccc2[C@@H](Oc2cc(C3=CCC(C[C@H](N)C(=O)O)CC3)nc(C)n2)C(F)(F)F)n1 (stereo partly drawn) [Example 32, (2S)-2-amino-3-(4-(6-((R)-1-(4-chloro-2-(3-methyl-1H-pyrazole-1-yl)phenyl)-2,2,2-trifluoroethoxy)-2-methylpyrimidine-4-yl)cyclohex-3-ene-1-yl)propionic acid hydrochloride]
IC50 [1]: 1820 nM

Cc1ccn(-c2cc(Cl)ccc2[C@@H](Oc2nc(N)nc3c(-c4ccc(C[C@H](N)C(=O)O)cc4)csc23)C(F)(F)F)n1 [Example 91, (S)-2-amino-3-(4-(2-amino-4-((R)-1-(4-chloro-2-(3-methyl-1H-pyrazole-1-yl)phenyl)-2,2,2-trifluoroethoxy)thieno[3,2-d]pyrimidine-7-yl)phenyl)propionic acid hydrochloride]
IC50 [1]: 208 nM

Cc1ccn(-c2cc(Cl)ccc2[C@@H](Oc2cc(C3=CCC4(CC3)CNC(C(=O)O)C4)nc(N)n2)C(F)(F)F)n1 (stereo partly drawn) [Example 79, 8-(2-amino-6-((R)-1-(4-chloro-2-(3-methyl-1H-pyrazole-1-yl)phenyl)-2,2,2-trifluoroethoxy)pyrimidine-4-yl)-2-azaspiro[4.5]dec-7-ene-3-carboxylic acid hydrochloride]
IC50 [2]: 185 nM

Nc1nc(O[C@H](c2ccc(Cl)cc2C2=CCCOC2)C(F)(F)F)cc(C2=CCC(C[C@H](N)C(=O)O)CC2)n1 (stereo partly drawn) [Example 66, (2S)-2-amino-3-(4-(2-amino-6-((R)-1-(4-chloro-2-(5,6-dihydro-2H-pyran-3-yl)phenyl)-2,2,2-trifluoroethoxy)pyrimidine-4-yl)cyclohex-3-ene-1-yl)propionic acid hydrochloride]
IC50 [2]: 125 nM

Cc1ccn(-c2cc(Cl)ccc2[C@@H](Oc2cc(C3=CCC(C[C@H](N)C(=O)O)CC3)nc(N)n2)C(F)(F)F)n1 (stereo partly drawn) [Example 31, (2S)-2-amino-3-(4-(2-amino-6-((R)-1-(4-chloro-2-(3-methyl-1H-pyrazole-1-yl)phenyl)-2,2,2-trifluoroethoxy)pyrimidine-4-yl)cyclohex-3-ene-1-yl)propionic acid hydrochloride]
IC50 [2]: 114 nM

N[C@@H](Cc1ccc(-c2csc3c(O[C@H](c4ccc(Cl)cc4C4=CCCOC4)C(F)(F)F)ncnc23)cc1)C(=O)O [Example 70, (S)-2-amino-3-(4-(4-((R)-1-(4-chloro-2-(5,6-dihydro-2H-pyran-3-yl)phenyl)-2,2,2-trifluoroethoxy)thieno[3,2-d]pyrimidine-7-yl)phenyl)propionic acid]
IC50 [1]: 371 nM

N[C@@H](Cc1ccc(-c2csc3c(O[C@H](c4ccc(Cl)cc4-c4cccc(F)c4)C(F)(F)F)ncnc23)cc1)C(=O)O [Example 24, (S)-2-amino-3-(4-(4-((R)-1-(5-chloro-3′-fluoro-[1,1′-biphenyl]-2-yl)-2,2,2-trifluoroethoxy)thieno[3,2-d]pyrimidine-7-yl)phenyl)propionic acid hydrochloride]
IC50 [1]: 565 nM

Nc1nc(O[C@H](c2ccc(Cl)cc2C2=CCC(F)(F)CC2)C(F)(F)F)cc(C2=CCC(C[C@H](N)C(=O)O)CC2)n1 (stereo partly drawn) [Example 75, (2S)-2-amino-3-(4-(2-amino-6-((R)-1-(5-chloro-4′,4′difluoro-2′,3′,4′,5′-tetrahydro-[1,1′-biphenyl]-2-yl)-2,2,2-trifluoroethoxy)pyrimidine-4-yl)cyclohex-3-ene-1-yl)propionic acid hydrochloride]
IC50 [1]: 443 nM
